# Reference: ChEMBL document CHEMBL1201862, “PubChem BioAssay data set” (2004)
# Active and inactive are the calls of the source.
# Columns and labels:
# [1] = NIH3T3 cell viability loss – ATP luminescence, mouse fibroblasts, counter-screen, dose response (AID 2010); assay type: functional, cell-based;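 note: cells exposed to compound for about 90 hours before reading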
# [2] = biological target: G-protein coupled receptor 35 (Homo sapiens, UniProt Q9HC97); assay: inhibition of zaprinast-stimulated GPR35 beta-arrestin translocation – imaging, U2OS, beta-arrestin-GFP, zaprinast agonist, primary screen (AID 2058); assay type: functional;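 note: antagonist potency meaning inhibition of agonist-induced arrestin redistribution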
# [3] = Trypanosoma cruzi growth suppression in host cells – NIH3T3 host cells, beta-gal luminescence, confirmation (AID 2044); assay type: functional, cell-based;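 note: intracellular parasites grown in NIH/3T3 mouse fibroblasts as host cells; luminescent beta-galactosidase reporter signal from transgenic T. cruzi replicating inside host cells; inhibitors lower the luminescence signal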
# [4] = biological target: T1, Voltage-dependent T-type calcium channel subunit alpha-1H (Homo sapiens, UniProt O95180); assay type: functional
# [5] = biological target: Trypsin (Sus scrofa, UniProt P00761); assay: trypsin protease activity blockade – biochemical, quenched peptide fluorescence, cherry-pick, selectivity assay for Rce1 protease inhibitor project, dose response (AID 488789)
# [6] = biological target: T2, Voltage-gated N-type calcium channel alpha-1B subunit/Amyloid beta A4 precursor protein-binding family A member 1 (Homo sapiens, UniProt Q00975+Q02410); assay type: protein assay
# [7] = biological target: T2, Voltage-gated N-type calcium channel alpha-1B subunit/Amyloid beta A4 precursor protein-binding family A member 1; assay type: protein assay; remark: listed apart in the source
# [8] = Luminescence Cell-Based Dose Retest to Confirm Inhibitors of Cancer Stem Cells. [Related pubchem assays (depositor defined):AID2717, AID2721]; assay type: functional; details: Homo sapiens
# [9] = reduction of Shn3 3'UTR-driven luciferase in osteoblasts – cell-based, Clone20 osteoblasts, firefly luciferase, cherry-picked, dose response (AID 624132); assay type: functional;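 note: firefly luciferase luminescence from reporter carrying the Shn3 3'UTR in osteoblasts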
# [10] = biological target: X-box-binding protein 1 (Homo sapiens, UniProt P17861); assay type: functional, Cricetulus griseus;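 note: confirmatory dose-response counter-screen serving a CHOP assay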
# [11] = loss of viability in HepG2 cells – cell-based, CellTiter-Glo, cherry-picked, cytotoxicity control for Shn3 inhibitor project, dose response (AID 624134); assay type: functional
# [12] = non-specific 3'UTR reporter inhibition in Clone20-Shn3RL – cell-based, Renilla luciferase, cherry-picked, counter-screen for Shn3 inhibitor project, dose response (AID 624133); assay type: functional
# [13] = biological target: T3, Zinc finger protein mex-5 (Caenorhabditis elegans, UniProt Q9XUB2); assay: potency of MEX-5 RNA-binding blockers – biochemical, C. elegans, fluorescence polarization, dose response (AID 1960)
# T3 sequence (Q9XUB2 whole entry): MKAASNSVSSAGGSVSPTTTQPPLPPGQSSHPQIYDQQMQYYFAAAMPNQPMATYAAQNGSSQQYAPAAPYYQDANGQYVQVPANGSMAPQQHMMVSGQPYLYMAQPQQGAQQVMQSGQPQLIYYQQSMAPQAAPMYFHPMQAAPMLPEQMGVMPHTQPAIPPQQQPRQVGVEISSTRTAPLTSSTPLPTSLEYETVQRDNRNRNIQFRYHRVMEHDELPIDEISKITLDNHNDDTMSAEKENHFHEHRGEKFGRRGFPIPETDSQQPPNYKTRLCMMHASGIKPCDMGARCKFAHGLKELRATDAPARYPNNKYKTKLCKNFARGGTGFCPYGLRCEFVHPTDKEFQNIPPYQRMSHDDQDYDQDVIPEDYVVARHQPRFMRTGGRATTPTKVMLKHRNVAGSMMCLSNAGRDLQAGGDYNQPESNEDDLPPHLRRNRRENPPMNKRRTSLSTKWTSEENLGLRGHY
# [14] = biological target: T4, RNA-binding protein pos-1 (Caenorhabditis elegans, UniProt G5EF15); assay: disruptors of C. elegans POS-1 RNA interaction – biochemical, fluorescence polarization, dose response (AID 1964);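 note: purified POS-1 fused to maltose binding protein made in E. coli; potency of compounds blocking POS-1 binding to fluorescent RNA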
# T4 sequence (G5EF15 whole entry): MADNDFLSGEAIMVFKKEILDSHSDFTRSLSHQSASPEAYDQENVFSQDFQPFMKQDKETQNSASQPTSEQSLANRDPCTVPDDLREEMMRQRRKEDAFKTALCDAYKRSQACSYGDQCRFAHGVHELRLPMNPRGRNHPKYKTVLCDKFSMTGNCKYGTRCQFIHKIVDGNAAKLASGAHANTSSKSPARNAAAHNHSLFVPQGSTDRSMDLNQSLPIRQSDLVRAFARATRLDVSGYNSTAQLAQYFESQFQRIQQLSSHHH
# [15] = biological target: T1, Voltage-dependent T-type calcium channel subunit alpha-1H; assay: Inhibitors of T-Type Calcium Channels. [Related pubchem assays (depositor defined):AID449739, AID463087, AID489005, AID493041, AID504579, AID504584, AID504619, AID504628]; assay type: functional
# [16] = tested on: BJ; assay: BJ-TERT fibroblast viability loss – cell-based, RAS-independent, luminescence, dose response (AID 1933); assay type: functional; details: Homo sapiens
# [17] = DRD fibroblast viability loss – cell-based, non-viral oncogenic, luminescence, dose response (AID 1934); assay type: functional; details: Homo sapiens
# [18] = tested on: BJ; assay: BJ-TERT-LT-ST fibroblast viability loss – cell-based, RAS-independent, luminescence, dose response (AID 1935); assay type: functional; details: Homo sapiens;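 note: BJ fibroblasts immortalized with TERT plus LT and ST oncogenes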
# [19] = microbe, parasite or virus in culture; assay type: functional; details: Mycobacterium tuberculosis
# [20] = biological target: G-protein coupled receptor 55 (Homo sapiens, UniProt Q9Y2T6); assay: selective activators of receptor GPR55 – imaging, U2OS cells, beta-arrestin-GFP redistribution, primary screen (AID 1961); assay type: functional
# [21] = tested on: BJ; assay: cells; assay type: functional, cell-based; details: Homo sapiens
# [22] = tested on: BJ; assay: growth inhibition of engineered Ras-driven BJ cells – cell-based, alamar blue fluorescence, cherrypicked samples, dose response (AID 2631); assay type: functional; details: Homo sapiens;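 note: confirmatory dose-response assay in RAS-dependent BJ fibroblasts engineered with TERT, LT and ST, with cytotoxicity read by fluorescence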
# [23] = biological target: T5, Alkaline phosphatase, tissue-nonspecific isozyme (Homo sapiens, UniProt P05186); assay: potency against alkaline phosphatase TNAP – biochemical, luminescent, dose response, SAR follow-up (AID 1056)
# T5 sequence (P05186 whole entry): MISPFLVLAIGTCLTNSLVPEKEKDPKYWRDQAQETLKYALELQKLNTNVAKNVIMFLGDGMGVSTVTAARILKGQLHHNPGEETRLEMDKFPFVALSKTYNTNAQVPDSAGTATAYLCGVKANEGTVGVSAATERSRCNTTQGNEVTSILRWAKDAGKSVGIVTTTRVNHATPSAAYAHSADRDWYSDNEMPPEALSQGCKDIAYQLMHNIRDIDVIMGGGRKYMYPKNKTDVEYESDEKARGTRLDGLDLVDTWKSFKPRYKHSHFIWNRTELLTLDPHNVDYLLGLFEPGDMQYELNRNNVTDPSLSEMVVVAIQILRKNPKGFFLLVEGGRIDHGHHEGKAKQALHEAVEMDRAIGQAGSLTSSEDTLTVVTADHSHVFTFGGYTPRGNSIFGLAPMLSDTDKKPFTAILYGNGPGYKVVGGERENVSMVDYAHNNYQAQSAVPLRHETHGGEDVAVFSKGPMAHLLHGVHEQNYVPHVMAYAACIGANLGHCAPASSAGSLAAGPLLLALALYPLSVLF
# [24] = biological target: Alkaline phosphatase, placental type (Homo sapiens, UniProt P05187); assay: human placental alkaline phosphatase inhibition – biochemical, luminescence, confirmation (AID 1512); assay type: functional
# [25] = biological target: T6, Rac GTPase-activating protein 1 (Homo sapiens, UniProt Q9H0H5); assay: blockers of MgcRacGAP-driven Rac1 GTP hydrolysis – biochemical, ADP Hunter fluorescence, primary and confirmatory, confirmation (AID 624330); assay type: functional
# T6 sequence (Q9H0H5 whole entry): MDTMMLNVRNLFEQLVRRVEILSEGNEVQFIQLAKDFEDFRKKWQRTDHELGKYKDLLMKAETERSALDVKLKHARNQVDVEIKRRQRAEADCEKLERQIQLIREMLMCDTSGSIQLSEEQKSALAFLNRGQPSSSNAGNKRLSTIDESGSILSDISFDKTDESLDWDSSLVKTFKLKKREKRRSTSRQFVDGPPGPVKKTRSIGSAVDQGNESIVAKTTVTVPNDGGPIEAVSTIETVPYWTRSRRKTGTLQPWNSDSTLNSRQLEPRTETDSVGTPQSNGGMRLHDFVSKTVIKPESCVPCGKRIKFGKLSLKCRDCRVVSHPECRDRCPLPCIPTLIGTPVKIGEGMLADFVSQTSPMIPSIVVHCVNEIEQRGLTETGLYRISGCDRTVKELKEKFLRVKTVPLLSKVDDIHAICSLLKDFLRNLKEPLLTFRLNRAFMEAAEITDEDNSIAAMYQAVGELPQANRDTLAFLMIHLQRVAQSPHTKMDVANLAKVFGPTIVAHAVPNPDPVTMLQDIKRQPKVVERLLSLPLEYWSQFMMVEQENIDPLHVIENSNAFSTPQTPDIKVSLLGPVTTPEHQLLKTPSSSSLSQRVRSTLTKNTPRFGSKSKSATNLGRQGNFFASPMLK
# T1 sequence (O95180 whole entry): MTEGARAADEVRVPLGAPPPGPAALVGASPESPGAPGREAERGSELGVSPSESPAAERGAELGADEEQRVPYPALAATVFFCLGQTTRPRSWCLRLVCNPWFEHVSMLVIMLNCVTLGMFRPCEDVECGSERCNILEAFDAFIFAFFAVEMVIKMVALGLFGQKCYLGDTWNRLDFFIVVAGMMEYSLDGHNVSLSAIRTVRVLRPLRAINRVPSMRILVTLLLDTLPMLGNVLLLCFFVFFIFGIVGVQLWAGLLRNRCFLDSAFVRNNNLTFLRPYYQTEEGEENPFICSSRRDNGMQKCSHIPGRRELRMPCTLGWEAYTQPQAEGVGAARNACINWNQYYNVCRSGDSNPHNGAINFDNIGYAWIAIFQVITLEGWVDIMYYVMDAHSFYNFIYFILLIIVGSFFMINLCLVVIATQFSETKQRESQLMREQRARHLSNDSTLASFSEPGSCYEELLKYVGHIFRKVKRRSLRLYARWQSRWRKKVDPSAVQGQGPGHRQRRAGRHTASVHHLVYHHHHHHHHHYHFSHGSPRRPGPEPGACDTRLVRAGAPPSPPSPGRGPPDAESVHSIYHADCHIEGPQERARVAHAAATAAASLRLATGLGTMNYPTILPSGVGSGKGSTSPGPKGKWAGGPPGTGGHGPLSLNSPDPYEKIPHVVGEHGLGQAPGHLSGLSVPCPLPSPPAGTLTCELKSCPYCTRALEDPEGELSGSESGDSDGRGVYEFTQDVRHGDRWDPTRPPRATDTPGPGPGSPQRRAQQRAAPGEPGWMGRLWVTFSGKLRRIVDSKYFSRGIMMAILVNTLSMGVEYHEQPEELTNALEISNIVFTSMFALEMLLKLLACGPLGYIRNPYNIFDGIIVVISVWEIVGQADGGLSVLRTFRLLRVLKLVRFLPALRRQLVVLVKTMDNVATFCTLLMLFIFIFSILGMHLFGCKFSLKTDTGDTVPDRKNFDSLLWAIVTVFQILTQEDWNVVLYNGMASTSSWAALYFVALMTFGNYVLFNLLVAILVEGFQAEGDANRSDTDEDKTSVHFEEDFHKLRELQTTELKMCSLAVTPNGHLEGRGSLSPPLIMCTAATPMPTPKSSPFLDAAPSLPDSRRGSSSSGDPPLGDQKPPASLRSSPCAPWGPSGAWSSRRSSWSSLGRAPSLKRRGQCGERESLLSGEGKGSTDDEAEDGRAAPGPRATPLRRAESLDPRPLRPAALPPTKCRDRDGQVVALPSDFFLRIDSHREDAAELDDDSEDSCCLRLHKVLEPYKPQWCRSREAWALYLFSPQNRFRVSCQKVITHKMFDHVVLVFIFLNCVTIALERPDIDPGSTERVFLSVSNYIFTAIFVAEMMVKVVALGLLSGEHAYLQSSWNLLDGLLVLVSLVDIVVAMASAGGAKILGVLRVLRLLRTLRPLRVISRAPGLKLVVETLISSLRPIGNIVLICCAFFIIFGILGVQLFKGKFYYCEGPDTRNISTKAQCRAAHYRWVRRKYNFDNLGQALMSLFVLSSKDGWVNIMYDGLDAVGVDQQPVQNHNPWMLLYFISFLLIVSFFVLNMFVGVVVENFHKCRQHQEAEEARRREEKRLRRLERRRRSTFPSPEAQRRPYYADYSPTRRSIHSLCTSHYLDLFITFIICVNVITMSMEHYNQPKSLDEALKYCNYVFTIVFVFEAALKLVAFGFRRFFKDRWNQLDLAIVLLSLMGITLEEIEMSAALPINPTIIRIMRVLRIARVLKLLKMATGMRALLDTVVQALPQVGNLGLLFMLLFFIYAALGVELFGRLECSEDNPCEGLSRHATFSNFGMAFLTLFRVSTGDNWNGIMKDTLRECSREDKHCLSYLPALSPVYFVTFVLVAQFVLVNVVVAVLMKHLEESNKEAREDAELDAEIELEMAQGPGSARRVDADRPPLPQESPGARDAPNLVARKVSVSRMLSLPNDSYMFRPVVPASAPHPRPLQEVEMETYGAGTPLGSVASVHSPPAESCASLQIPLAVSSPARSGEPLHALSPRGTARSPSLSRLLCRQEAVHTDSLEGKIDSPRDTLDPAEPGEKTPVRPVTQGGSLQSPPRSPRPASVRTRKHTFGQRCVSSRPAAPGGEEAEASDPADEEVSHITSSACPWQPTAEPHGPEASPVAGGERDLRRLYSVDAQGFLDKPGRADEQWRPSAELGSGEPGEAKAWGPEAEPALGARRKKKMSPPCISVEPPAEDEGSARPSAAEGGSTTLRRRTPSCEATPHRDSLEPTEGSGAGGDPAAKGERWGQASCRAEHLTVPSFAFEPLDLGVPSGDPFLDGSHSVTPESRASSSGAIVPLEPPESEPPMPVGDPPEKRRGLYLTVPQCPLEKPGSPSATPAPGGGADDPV
# Chain of Alkaline phosphatase, placental type (P05187 whole entry): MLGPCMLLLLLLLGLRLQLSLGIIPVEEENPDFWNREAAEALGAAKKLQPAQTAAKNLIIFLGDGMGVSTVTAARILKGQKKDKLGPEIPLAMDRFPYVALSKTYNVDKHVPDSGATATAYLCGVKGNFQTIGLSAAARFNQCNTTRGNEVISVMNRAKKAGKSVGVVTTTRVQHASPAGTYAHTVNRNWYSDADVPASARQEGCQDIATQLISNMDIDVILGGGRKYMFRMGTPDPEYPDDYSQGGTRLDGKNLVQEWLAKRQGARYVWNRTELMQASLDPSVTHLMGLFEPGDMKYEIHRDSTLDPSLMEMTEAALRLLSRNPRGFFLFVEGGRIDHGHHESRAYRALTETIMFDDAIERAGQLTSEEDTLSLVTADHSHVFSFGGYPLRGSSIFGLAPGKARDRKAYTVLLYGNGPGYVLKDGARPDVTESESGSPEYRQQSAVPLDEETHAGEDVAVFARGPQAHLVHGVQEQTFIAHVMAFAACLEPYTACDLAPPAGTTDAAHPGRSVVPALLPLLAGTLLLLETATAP
# Chain of G-protein coupled receptor 35 (Q9HC97 whole entry): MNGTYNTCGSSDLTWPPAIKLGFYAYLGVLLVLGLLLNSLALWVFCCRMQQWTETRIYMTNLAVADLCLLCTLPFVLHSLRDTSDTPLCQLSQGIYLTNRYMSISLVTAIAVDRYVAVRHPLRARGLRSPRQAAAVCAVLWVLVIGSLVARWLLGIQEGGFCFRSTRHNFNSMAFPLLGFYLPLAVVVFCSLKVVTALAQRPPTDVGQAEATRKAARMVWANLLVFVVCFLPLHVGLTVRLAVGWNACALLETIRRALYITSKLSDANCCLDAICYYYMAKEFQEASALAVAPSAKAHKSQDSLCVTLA
# Chain of Trypsin (P00761 whole entry): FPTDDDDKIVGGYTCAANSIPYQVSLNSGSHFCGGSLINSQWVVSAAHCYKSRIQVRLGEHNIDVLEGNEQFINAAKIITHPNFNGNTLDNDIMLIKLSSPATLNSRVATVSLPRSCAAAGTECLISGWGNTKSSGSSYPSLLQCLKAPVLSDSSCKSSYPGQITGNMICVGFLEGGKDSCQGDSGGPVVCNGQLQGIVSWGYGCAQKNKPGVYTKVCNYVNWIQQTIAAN
# Chain of G-protein coupled receptor 55 (Q9Y2T6 whole entry): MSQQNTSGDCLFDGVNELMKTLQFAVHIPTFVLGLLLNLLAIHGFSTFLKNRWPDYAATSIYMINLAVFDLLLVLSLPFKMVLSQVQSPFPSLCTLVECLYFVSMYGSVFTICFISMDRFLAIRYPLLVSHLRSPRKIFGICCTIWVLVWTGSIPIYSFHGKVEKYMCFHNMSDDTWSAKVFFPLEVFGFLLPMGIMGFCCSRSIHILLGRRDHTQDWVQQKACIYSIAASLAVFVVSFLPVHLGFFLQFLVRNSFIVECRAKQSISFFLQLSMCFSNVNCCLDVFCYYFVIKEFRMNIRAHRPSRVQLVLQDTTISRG
# Chain of X-box-binding protein 1 (P17861 whole entry): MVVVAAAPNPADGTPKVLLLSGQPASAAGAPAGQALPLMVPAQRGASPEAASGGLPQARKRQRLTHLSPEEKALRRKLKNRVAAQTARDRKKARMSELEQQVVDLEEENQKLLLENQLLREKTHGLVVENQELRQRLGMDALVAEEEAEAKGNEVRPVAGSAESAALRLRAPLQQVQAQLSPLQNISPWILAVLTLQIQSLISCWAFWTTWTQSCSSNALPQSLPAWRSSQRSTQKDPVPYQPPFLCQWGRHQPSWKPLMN
smiles,measurement,setting,value
CCN(CC)c1ccc(/C=C(/C#N)c2nc3cc(C)ccc3[nH]2)c(OC(C)C)c1,EC50,[1],> 60 µM (not active)
same,IC50,[2],0.557 µM (active)
same,EC50,[3],0.823 µM (active)
same,EC50,[4],1.62 µM (active)
COc1ccc(-c2oc3ccc(N4CCOCC4)cc3c2/C=C/c2ccc(OC)c(OC)c2)cc1,AC50,[5],2.77 µM (active)
N#CC1=C([S-])NC(=O)[C@H]([n+]2ccccc2)[C@H]1c1ccc(Cl)cc1,IC50,[6],> 56.8 µM (not active)
same,IC50,[7],> 50 µM (inactive)
Cc1cc(Nc2cccc([N+](=O)[O-])c2)n2c(nc3ccccc32)c1C#N,EC50,[1],> 60 µM (inconclusive)
same,AC50,[8],2.33 µM (active)
same,AC50,[9],1.9 µM (active)
same,Absolute IC50 (XBP1),[10],10 µM
same,AC50,[11],2.15 µM (active)
same,AC50,[12],3.46 µM (active)
same,EC50,[3],2.47 µM (active)
Cc1ccc(N2C(=O)c3cccc4c(N5CCN(C)CC5)ccc(c34)C2=O)c2cccnc12,EC50,[13],7.84 µM (active)
same,EC50,[14],7.8 µM (active)
same,EC50,[15],4.61 µM (active)
same,EC50,[4],0.658 µM (active)
COc1ccc(C=C2C=C(C(C)(C)C)C(=O)C(C(C)(C)C)=C2)cc1OC,AC50,[8],1.88 µM (active)
same,IC50,[2],3.16 µM (active)
same,EC50,[16],2.93 µM (active)
same,EC50,[17],5.35 µM (inconclusive)
same,EC50,[18],3.54 µM (inconclusive)
same,CC50,[19],12.8 µM (active)
same,EC50,[20],> 32 µM (inactive)
same,EC50,[21],6.69 µM (active)
same,EC50,[22],0.571 µM (inconclusive)
Cc1cc(C)c(C#N)c(SCC(=O)c2ccc3c(c2)OCO3)n1,IC50,[23],> 100 µM (inactive)
same,IC50,[24],> 100 µM (inactive)
C=CCn1c(SCC(=O)c2ccc(O)c(O)c2)nnc1-c1cccc(Cl)c1,IC50,[23],20.7 µM (active)
same,IC50,[25],79.5 µM (active)
same,IC50,[24],6.62 µM (active)
